Experimental data as given in the NIST ThermoML archive (doi:10.1021/je0603325).
± gives the expanded uncertainty stated by the source.

Experiment: molar heat capacity at constant pressure; xn = mol fraction of the nth substance listed
Conditions: 101 kPa, Liquid, Small sample (50 mg) DSC

BrCCBr [1,2-dibromoethane] + CCCCCCC
molar heat capacity at constant pressure (303.15 K, x1 = 0.5991): 172.23 ± 2.7 J/K/mol
molar heat capacity at constant pressure (303.15 K, x1 = 0.6928): 163.89 ± 2.5 J/K/mol
molar heat capacity at constant pressure (303.15 K, x1 = 0.8022): 154.24 ± 2.4 J/K/mol
molar heat capacity at constant pressure (303.15 K, x1 = 0.9003): 145.65 ± 2.3 J/K/mol
molar heat capacity at constant pressure (303.15 K, x1 = 1): 137.25 ± 2.1 J/K/mol
molar heat capacity at constant pressure (304.15 K, x1 = 0.1016): 217.33 ± 3.4 J/K/mol
molar heat capacity at constant pressure (304.15 K, x1 = 0.2016): 207.57 ± 3.2 J/K/mol
molar heat capacity at constant pressure (304.15 K, x1 = 0.2989): 199.17 ± 3.1 J/K/mol
molar heat capacity at constant pressure (304.15 K, x1 = 0.3977): 190.33 ± 3 J/K/mol
molar heat capacity at constant pressure (304.15 K, x1 = 0.4996): 181.4 ± 2.8 J/K/mol
molar heat capacity at constant pressure (304.15 K, x1 = 0.5991): 172.31 ± 2.7 J/K/mol
molar heat capacity at constant pressure (304.15 K, x1 = 0.6928): 163.94 ± 2.5 J/K/mol
molar heat capacity at constant pressure (304.15 K, x1 = 0.8022): 154.32 ± 2.4 J/K/mol
molar heat capacity at constant pressure (304.15 K, x1 = 0.9003): 145.75 ± 2.3 J/K/mol
molar heat capacity at constant pressure (304.15 K, x1 = 1): 137.29 ± 2.1 J/K/mol
molar heat capacity at constant pressure (305.15 K, x1 = 0.1016): 217.7 ± 3.4 J/K/mol
molar heat capacity at constant pressure (305.15 K, x1 = 0.2016): 207.95 ± 3.2 J/K/mol
molar heat capacity at constant pressure (305.15 K, x1 = 0.2989): 199.39 ± 3.1 J/K/mol
molar heat capacity at constant pressure (305.15 K, x1 = 0.3977): 190.62 ± 3 J/K/mol
molar heat capacity at constant pressure (305.15 K, x1 = 0.4996): 181.54 ± 2.8 J/K/mol
molar heat capacity at constant pressure (305.15 K, x1 = 0.5991): 172.49 ± 2.7 J/K/mol
molar heat capacity at constant pressure (305.15 K, x1 = 0.6928): 164.06 ± 2.5 J/K/mol
molar heat capacity at constant pressure (305.15 K, x1 = 0.8022): 154.37 ± 2.4 J/K/mol
molar heat capacity at constant pressure (305.15 K, x1 = 0.9003): 145.77 ± 2.3 J/K/mol
molar heat capacity at constant pressure (305.15 K, x1 = 1): 137.32 ± 2.1 J/K/mol
molar heat capacity at constant pressure (306.15 K, x1 = 0.1016): 218.07 ± 3.4 J/K/mol
molar heat capacity at constant pressure (306.15 K, x1 = 0.2016): 208.28 ± 3.2 J/K/mol
molar heat capacity at constant pressure (306.15 K, x1 = 0.2989): 199.58 ± 3.1 J/K/mol
molar heat capacity at constant pressure (306.15 K, x1 = 0.3977): 190.75 ± 3 J/K/mol
molar heat capacity at constant pressure (306.15 K, x1 = 0.4996): 181.72 ± 2.8 J/K/mol
molar heat capacity at constant pressure (306.15 K, x1 = 0.5991): 172.71 ± 2.7 J/K/mol
molar heat capacity at constant pressure (306.15 K, x1 = 0.6928): 164.29 ± 2.5 J/K/mol
molar heat capacity at constant pressure (306.15 K, x1 = 0.8022): 154.55 ± 2.4 J/K/mol
molar heat capacity at constant pressure (306.15 K, x1 = 0.9003): 145.83 ± 2.3 J/K/mol
molar heat capacity at constant pressure (306.15 K, x1 = 1): 137.39 ± 2.1 J/K/mol
molar heat capacity at constant pressure (307.15 K, x1 = 0.1016): 218.39 ± 3.4 J/K/mol
molar heat capacity at constant pressure (307.15 K, x1 = 0.2016): 208.47 ± 3.2 J/K/mol
molar heat capacity at constant pressure (307.15 K, x1 = 0.2989): 199.9 ± 3.1 J/K/mol
molar heat capacity at constant pressure (307.15 K, x1 = 0.3977): 191.03 ± 3 J/K/mol
molar heat capacity at constant pressure (307.15 K, x1 = 0.4996): 181.95 ± 2.8 J/K/mol
molar heat capacity at constant pressure (307.15 K, x1 = 0.5991): 172.88 ± 2.7 J/K/mol
molar heat capacity at constant pressure (307.15 K, x1 = 0.6928): 164.4 ± 2.5 J/K/mol
molar heat capacity at constant pressure (307.15 K, x1 = 0.8022): 154.6 ± 2.4 J/K/mol
molar heat capacity at constant pressure (307.15 K, x1 = 0.9003): 145.96 ± 2.3 J/K/mol
molar heat capacity at constant pressure (307.15 K, x1 = 1): 137.42 ± 2.1 J/K/mol
molar heat capacity at constant pressure (308.15 K, x1 = 0.1016): 218.69 ± 3.4 J/K/mol
molar heat capacity at constant pressure (308.15 K, x1 = 0.2016): 208.8 ± 3.2 J/K/mol
molar heat capacity at constant pressure (308.15 K, x1 = 0.2989): 200.2 ± 3.1 J/K/mol
molar heat capacity at constant pressure (308.15 K, x1 = 0.3977): 191.31 ± 3 J/K/mol
molar heat capacity at constant pressure (308.15 K, x1 = 0.4996): 182.17 ± 2.8 J/K/mol
molar heat capacity at constant pressure (308.15 K, x1 = 0.5991): 173 ± 2.7 J/K/mol
molar heat capacity at constant pressure (308.15 K, x1 = 0.6928): 164.48 ± 2.5 J/K/mol
molar heat capacity at constant pressure (308.15 K, x1 = 0.8022): 154.68 ± 2.4 J/K/mol
molar heat capacity at constant pressure (308.15 K, x1 = 0.9003): 146.01 ± 2.3 J/K/mol
molar heat capacity at constant pressure (308.15 K, x1 = 1): 137.49 ± 2.1 J/K/mol
molar heat capacity at constant pressure (309.15 K, x1 = 0.1016): 219.1 ± 3.4 J/K/mol
molar heat capacity at constant pressure (309.15 K, x1 = 0.2016): 209.1 ± 3.2 J/K/mol
molar heat capacity at constant pressure (309.15 K, x1 = 0.2989): 200.37 ± 3.1 J/K/mol
molar heat capacity at constant pressure (309.15 K, x1 = 0.3977): 191.5 ± 3 J/K/mol
molar heat capacity at constant pressure (309.15 K, x1 = 0.4996): 182.37 ± 2.8 J/K/mol
molar heat capacity at constant pressure (309.15 K, x1 = 0.5991): 173.19 ± 2.7 J/K/mol
molar heat capacity at constant pressure (309.15 K, x1 = 0.6928): 164.7 ± 2.5 J/K/mol
molar heat capacity at constant pressure (309.15 K, x1 = 0.8022): 154.79 ± 2.4 J/K/mol
molar heat capacity at constant pressure (309.15 K, x1 = 0.9003): 146.13 ± 2.3 J/K/mol
molar heat capacity at constant pressure (309.15 K, x1 = 1): 137.53 ± 2.1 J/K/mol
molar heat capacity at constant pressure (310.15 K, x1 = 0.1016): 219.41 ± 3.4 J/K/mol
molar heat capacity at constant pressure (310.15 K, x1 = 0.2016): 209.5 ± 3.2 J/K/mol
molar heat capacity at constant pressure (310.15 K, x1 = 0.2989): 200.65 ± 3.1 J/K/mol
molar heat capacity at constant pressure (310.15 K, x1 = 0.3977): 191.66 ± 3 J/K/mol
molar heat capacity at constant pressure (310.15 K, x1 = 0.4996): 182.48 ± 2.8 J/K/mol
molar heat capacity at constant pressure (310.15 K, x1 = 0.5991): 173.29 ± 2.7 J/K/mol
molar heat capacity at constant pressure (310.15 K, x1 = 0.6928): 164.8 ± 2.5 J/K/mol
molar heat capacity at constant pressure (310.15 K, x1 = 0.8022): 154.9 ± 2.4 J/K/mol
molar heat capacity at constant pressure (310.15 K, x1 = 0.9003): 146.2 ± 2.3 J/K/mol
molar heat capacity at constant pressure (310.15 K, x1 = 1): 137.6 ± 2.1 J/K/mol
molar heat capacity at constant pressure (311.15 K, x1 = 0.1016): 219.69 ± 3.4 J/K/mol
molar heat capacity at constant pressure (311.15 K, x1 = 0.2016): 209.78 ± 3.2 J/K/mol
molar heat capacity at constant pressure (311.15 K, x1 = 0.2989): 200.99 ± 3.1 J/K/mol
molar heat capacity at constant pressure (311.15 K, x1 = 0.3977): 191.91 ± 3 J/K/mol
molar heat capacity at constant pressure (311.15 K, x1 = 0.4996): 182.68 ± 2.8 J/K/mol
molar heat capacity at constant pressure (311.15 K, x1 = 0.5991): 173.5 ± 2.7 J/K/mol
molar heat capacity at constant pressure (311.15 K, x1 = 0.6928): 164.88 ± 2.5 J/K/mol
molar heat capacity at constant pressure (311.15 K, x1 = 0.8022): 155 ± 2.4 J/K/mol
molar heat capacity at constant pressure (311.15 K, x1 = 0.9003): 146.21 ± 2.3 J/K/mol
molar heat capacity at constant pressure (311.15 K, x1 = 1): 137.65 ± 2.1 J/K/mol
molar heat capacity at constant pressure (312.15 K, x1 = 0.1016): 220.11 ± 3.4 J/K/mol
molar heat capacity at constant pressure (312.15 K, x1 = 0.2016): 210.1 ± 3.3 J/K/mol
molar heat capacity at constant pressure (312.15 K, x1 = 0.2989): 201.15 ± 3.1 J/K/mol
molar heat capacity at constant pressure (312.15 K, x1 = 0.3977): 192.12 ± 3 J/K/mol
molar heat capacity at constant pressure (312.15 K, x1 = 0.4996): 182.91 ± 2.8 J/K/mol
molar heat capacity at constant pressure (312.15 K, x1 = 0.5991): 173.69 ± 2.7 J/K/mol
molar heat capacity at constant pressure (312.15 K, x1 = 0.6928): 165.06 ± 2.6 J/K/mol
molar heat capacity at constant pressure (312.15 K, x1 = 0.8022): 155.16 ± 2.4 J/K/mol
molar heat capacity at constant pressure (312.15 K, x1 = 0.9003): 146.3 ± 2.3 J/K/mol
molar heat capacity at constant pressure (312.15 K, x1 = 1): 137.71 ± 2.1 J/K/mol
molar heat capacity at constant pressure (313.15 K, x1 = 0.1016): 220.35 ± 3.4 J/K/mol
molar heat capacity at constant pressure (313.15 K, x1 = 0.2016): 210.39 ± 3.3 J/K/mol
molar heat capacity at constant pressure (313.15 K, x1 = 0.2989): 201.51 ± 3.1 J/K/mol
molar heat capacity at constant pressure (313.15 K, x1 = 0.3977): 192.42 ± 3 J/K/mol
molar heat capacity at constant pressure (313.15 K, x1 = 0.4996): 183.06 ± 2.8 J/K/mol
molar heat capacity at constant pressure (313.15 K, x1 = 0.5991): 173.84 ± 2.7 J/K/mol
molar heat capacity at constant pressure (313.15 K, x1 = 0.6928): 165.16 ± 2.6 J/K/mol
molar heat capacity at constant pressure (313.15 K, x1 = 0.8022): 155.25 ± 2.4 J/K/mol
molar heat capacity at constant pressure (313.15 K, x1 = 0.9003): 146.43 ± 2.3 J/K/mol
molar heat capacity at constant pressure (313.15 K, x1 = 1): 137.77 ± 2.1 J/K/mol
